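How tested: cells in 96-well plates exposed to compound for 48 hours at five concentrations. GI50: concentration for 50% inhibition of growth.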 Calls of active or inactive are those of the source. Cut-off read from the data, not from the text of the source: active = GI50 up to about 1.1 µM and inactive = higher.

Among the test systems are HL-60; HCT-15; SN12C; COLO 205; SK-MEL-5; RXF 393; M14; T47D; SNB-19; HCT-116; TK-10; NCI-H23; IGROV-1; CCRF-CEM; 786-0; K562; Hs-578T; SNB-75; MDA-MB-231; SR.
Common to all, as to assay: NCI tumour cell line growth inhibition, 48 h

For `C=C1C(=O)O[C@@H]2[C@@H]3O[C@@H](C[C@@H]13)[C@](C)(O)CC/C=C(\C)CCC[C@@H]2C`, the GI50 was 2.8 µM (inactive) in the test on HL-60; 11.6 µM in the test on HCT-15; 12 µM (inactive) in the test on SN12C; 14.7 µM (inactive) in the test with COLO 205; 16.4 µM (inactive) in the test with SK-MEL-5; 13.6 µM (inactive) in the test with RXF 393. The GI50 in the test on M14 was 12.2 µM (inactive); with T47D it was 18.7 µM (inactive); in the test on SNB-19 it was 15.1 µM (inactive); in the test on HCT-116, 8.13 µM (inactive); in the test with TK-10, 14.4 µM (inactive); in the test on NCI-H23, 13.3 µM (inactive). The GI50 with IGROV-1 was 10.2 µM (inactive); with CCRF-CEM, 2.86 µM (inactive); with 786-0, 5.42 µM (inactive); with K562 it was 4.66 µM (inactive); in the test with Hs-578T, 17.4 µM (inactive); in the test with SNB-75, 11.8 µM (inactive). Besides, the GI50 in the test on MDA-MB-231 was 16.6 µM (inactive).

Take `O=C1CSC(c2cccc([N+](=O)[O-])c2)N1c1ccc(-n2c(-c3ccccc3)nc3ccccc3c2=O)cc1` (stereo not given): the GI50 in the test with HL-60 is > 100 µM (inactive); in the test with HCT-15 it was 30.5 µM; in the test with SN12C, > 100 µM (inactive); in the test on COLO 205, > 100 µM (inactive); with SK-MEL-5, > 100 µM (inactive); in the test with M14, > 100 µM (inactive). Further, the GI50 in the test on T47D was 6.68 µM (inactive); in the test on SNB-19 it was > 100 µM (inactive); with HCT-116, > 100 µM (inactive); with SR it was 84.3 µM (inactive); in the test on TK-10 it was > 100 µM (inactive); in the test on NCI-H23, > 100 µM (inactive). Further, the GI50 with IGROV-1 was > 100 µM (inactive); with CCRF-CEM, > 100 µM (inactive); with 786-0, > 100 µM (inactive); with K562, > 100 µM (inactive); in the test with Hs-578T, 78.2 µM (inactive); in the test on MDA-MB-231, > 100 µM (inactive).

With `CCCCCCCCCCCCCCCCOCC(Cl)COP(=O)(O)OP(=O)(O)OCC1OC(n2cc(C)c(=O)[nH]c2=O)CC1O` (stereo not given), the GI50 was > 100 µM (inactive) in the test with HL-60; over 100 µM in the test on HCT-15; 70 µM (inactive) in the test with SN12C; > 100 µM (inactive) in the test on COLO 205; > 100 µM (inactive) in the test with SK-MEL-5; > 100 µM (inactive) in the test on RXF 393. Besides, the GI50 in the test on M14 is > 100 µM (inactive); in the test with T47D it was 97.3 µM (inactive); in the test on SNB-19, > 100 µM (inactive); in the test on HCT-116, > 100 µM (inactive); in the test on TK-10, > 100 µM (inactive); with NCI-H23, > 100 µM (inactive). For the same compound, the GI50 is 55.2 µM (inactive) with IGROV-1; > 100 µM (inactive) in the test with CCRF-CEM; > 100 µM (inactive) in the test with 786-0; > 100 µM (inactive) in the test on K562; 31.4 µM (inactive) in the test on Hs-578T; 26.7 µM (inactive) in the test on SNB-75. Further, in the test on MDA-MB-231, the GI50 is 49 µM (inactive).

On to `Cc1ccc2c(c1C)CC1(Cc3c(C)ccc(C)c3C1=O)C2=O` (stereo not given), for which the GI50 in the test on HL-60 is > 100 µM (inactive); with HCT-15, over 100 µM; in the test with SN12C it was > 100 µM (inactive); in the test with COLO 205, > 100 µM (inactive); with SK-MEL-5, > 100 µM (inactive); in the test with RXF 393, > 100 µM (inactive). The GI50 in the test on M14, in the test with T47D, in the test on SNB-19, in the test on HCT-116, in the test on TK-10 and with NCI-H23 was > 100 µM (inactive) throughout. Besides, the GI50 in the test on IGROV-1, with CCRF-CEM, with 786-0, in the test on K562, in the test on Hs-578T and in the test with SNB-75 was > 100 µM (inactive) each time. For the same compound, in the test on MDA-MB-231, the GI50 was > 100 µM (inactive).

Turning to `CCN(CC)CCCC(C)Nc1ccnc(/C=C/c2ccc(Cl)cc2)c1` (stereo not given), the GI50 with HL-60 was 2.07 µM (inactive); in the test on HCT-15, 1.82 µM; with SN12C, 2.07 µM (inactive); in the test on COLO 205, 1.35 µM (inactive); in the test on SK-MEL-5 it was 3.23 µM (inactive); with M14, 1.11 µM (active). The GI50 in the test on T47D was 1.93 µM (inactive); with SNB-19, 3.4 µM (inactive); in the test on HCT-116, 1.72 µM (inactive); in the test on SR, 2.3 µM (inactive); in the test with TK-10 it was 2.38 µM (inactive); in the test on NCI-H23 it was 10.1 µM (inactive). The GI50 in the test on IGROV-1 was 2.17 µM (inactive); in the test with CCRF-CEM it was 1.2 µM (inactive); in the test on 786-0, 1.41 µM (inactive); with K562, 0.135 µM (active); in the test on Hs-578T it was 2.26 µM (inactive); in the test on SNB-75 it was 1.77 µM (inactive). In the test on MDA-MB-231, the GI50 is 0.497 µM (active).

With `CC1CN=C(Nc2ccc(F)cc2F)S1` (stereo not given), the GI50 was > 100 µM (inactive) with HL-60; over 100 µM with HCT-15; > 100 µM (inactive) in the test with SN12C; > 100 µM (inactive) in the test with COLO 205; > 100 µM (inactive) in the test on SK-MEL-5; 88.9 µM (inactive) in the test with T47D. Also, the GI50 with SNB-19, in the test with HCT-116, in the test on SR, in the test with TK-10, in the test with NCI-H23 and in the test on IGROV-1 was > 100 µM (inactive) throughout. Besides, the GI50 in the test on CCRF-CEM is > 100 µM (inactive); with 786-0 it was > 100 µM (inactive); in the test with K562 it was > 100 µM (inactive); in the test with Hs-578T, > 100 µM (inactive); with SNB-75, 70.3 µM (inactive); in the test with MDA-MB-231, > 100 µM (inactive).

With `CSc1nnnc2ccccc12`, the GI50 is > 100 µM (inactive) in the test with HL-60; over 100 µM in the test with HCT-15; > 100 µM (inactive) in the test on SN12C; > 100 µM (inactive) in the test on COLO 205; > 100 µM (inactive) in the test with SK-MEL-5; > 100 µM (inactive) in the test with RXF 393. For the same compound, the GI50 with M14 is > 100 µM (inactive); in the test on T47D, 85.1 µM (inactive); with SNB-19 it was > 100 µM (inactive); in the test with HCT-116 it was > 100 µM (inactive); in the test on TK-10, > 100 µM (inactive); with NCI-H23, > 100 µM (inactive). Moreover, the GI50 was > 100 µM (inactive) with IGROV-1; 51.4 µM (inactive) in the test on CCRF-CEM; > 100 µM (inactive) in the test with 786-0; > 100 µM (inactive) with K562; > 100 µM (inactive) with Hs-578T; > 100 µM (inactive) in the test with SNB-75. Also, in the test with MDA-MB-231, the GI50 was > 100 µM (inactive).

As for `CCN(CC)C(=S)SS(=O)(=O)c1ccc(C)cc1`, the GI50 in the test with HCT-15 was 36.7 µM; with SN12C it was 17.5 µM (inactive); in the test on COLO 205 it was 22.3 µM (inactive); in the test on SK-MEL-5 it was 0.644 µM (active); in the test on RXF 393 it was 16.8 µM (inactive); in the test with M14 it was 13.9 µM (inactive). Also, the GI50 with T47D is 59.7 µM (inactive); in the test on SNB-19, 61.1 µM (inactive); with TK-10 it was > 100 µM (inactive); with NCI-H23 it was 42.4 µM (inactive); in the test with CCRF-CEM, < 0.01 µM (active); in the test on 786-0, 20.3 µM (inactive). Besides, the GI50 in the test on K562 was 28.5 µM (inactive); in the test on Hs-578T it was 75.5 µM (inactive); in the test on MDA-MB-231, 35.7 µM (inactive).

For the compound `COc1nc(=O)n(C2CC(N=[N+]=[N-])C(CO)O2)cc1C` (stereo not given), the GI50 in the test with HL-60 is > 100 µM (inactive); in the test on HCT-15 it was over 100 µM; in the test with SN12C, > 100 µM (inactive); in the test on SK-MEL-5, > 100 µM (inactive); in the test on M14 it was > 100 µM (inactive); in the test with T47D, > 100 µM (inactive). Also, the GI50 in the test on SNB-19, with HCT-116, with SR, in the test with TK-10, in the test with NCI-H23 and in the test with IGROV-1 was > 100 µM (inactive) in each case. For the same compound, the GI50 in the test with CCRF-CEM, with 786-0, with K562, with Hs-578T and in the test with MDA-MB-231 was > 100 µM (inactive) each time.

Take `O=C(O)c1ccc(NC(NC(=O)C(C(F)(F)F)C(F)(F)F)(C(F)(F)F)C(F)(F)F)cc1`: the GI50 with HL-60 was > 100 µM (inactive); in the test on HCT-15, over 100 µM; with SN12C, > 100 µM (inactive); with COLO 205, > 100 µM (inactive); in the test with SK-MEL-5, > 100 µM (inactive); in the test with RXF 393 it was > 100 µM (inactive). Further, the GI50 with M14, with T47D, in the test with SNB-19, in the test with HCT-116, in the test on SR and in the test with TK-10 was > 100 µM (inactive) in each case. Further, the GI50 in the test on NCI-H23, with IGROV-1, in the test on CCRF-CEM, in the test on 786-0, in the test with K562 and with Hs-578T was > 100 µM (inactive) throughout. Also, the GI50 in the test on SNB-75 was > 100 µM (inactive).

`N=C(N)SCc1cc(Cl)cc(Cl)c1O`: the GI50 was 3.21 µM (inactive) with HL-60; 20.1 µM with HCT-15; 17.4 µM (inactive) in the test with SN12C; 17.7 µM (inactive) with COLO 205; 16.6 µM (inactive) with SK-MEL-5; 19.9 µM (inactive) with RXF 393. Also, the GI50 in the test with M14 was 16.6 µM (inactive); with T47D it was 20.9 µM (inactive); in the test with SNB-19 it was 18.2 µM (inactive); with HCT-116 it was 16.3 µM (inactive); with TK-10 it was 18.8 µM (inactive); with NCI-H23, 19 µM (inactive). The GI50 with IGROV-1 is 18.5 µM (inactive); with CCRF-CEM, 13.7 µM (inactive); in the test with 786-0, 18 µM (inactive); with K562, 19.8 µM (inactive); in the test with Hs-578T it was 20.4 µM (inactive); in the test with MDA-MB-231 it was 15.1 µM (inactive).

These data come from ChEMBL document CHEMBL1201862, “PubChem BioAssay data set” (2004).
